Molecules are shown by their SMILES.

For the first experiment, the target named is T1, Interstitial collagenase (Homo sapiens, UniProt P03956).
T1 sequence (P03956 whole entry): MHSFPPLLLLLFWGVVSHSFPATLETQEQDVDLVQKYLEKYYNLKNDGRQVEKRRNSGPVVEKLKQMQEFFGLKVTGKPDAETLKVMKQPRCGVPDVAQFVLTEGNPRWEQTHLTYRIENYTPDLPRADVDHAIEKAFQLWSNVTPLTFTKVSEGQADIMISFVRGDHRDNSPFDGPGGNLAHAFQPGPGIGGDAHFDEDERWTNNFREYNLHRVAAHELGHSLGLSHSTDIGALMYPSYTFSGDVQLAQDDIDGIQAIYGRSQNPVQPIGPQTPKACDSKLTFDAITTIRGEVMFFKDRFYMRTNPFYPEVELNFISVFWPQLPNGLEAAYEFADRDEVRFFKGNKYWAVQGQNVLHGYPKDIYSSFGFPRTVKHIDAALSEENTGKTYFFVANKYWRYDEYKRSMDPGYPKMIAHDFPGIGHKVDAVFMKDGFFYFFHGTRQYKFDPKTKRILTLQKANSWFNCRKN
Description: Inhibition of human recombinant MMP1 using succinylated gelatin as substrate incubated for 30 mins prior to substrate addition measured after 60 mins
As usually defined, the IC50 is the midpoint of a concentration-inhibition curve. A low value points to inhibition by little substance. Consider `O=C(/C=C/c1ccc(O)c(O)c1)Nc1ccc(F)cc1`, for which the IC50 was 4370 nM.
Same read-out and setting: to `COc1cccc(NC(=O)/C=C/c2ccc(O)c(O)c2)c1` belongs 5290 nM; to `COc1ccc(NC(=O)/C=C/c2ccc(O)c(O)c2)cc1`, 5320 nM.
In the case of `O=C(/C=C/c1ccc(O)c(O)c1)Nc1ccccc1Cl`, half-maximal inhibition (IC50) was put at 3710 nM.
`O=C(/C=C/c1ccc(O)c(O)c1)Nc1cccc(F)c1` gave an IC50 of 4300 nM.
Same read-out and setting: as for `O=C(/C=C/c1ccc(O)c(O)c1)Nc1cccc(Cl)c1`, the figure is 3810 nM; as for `Cc1ccc(NC(=O)/C=C/c2ccc(O)c(O)c2)cc1`, 4830 nM.
The same measure, in the same setting: to `O=C(/C=C/c1ccc(O)c(O)c1)Nc1ccc(Cl)cc1` belongs 3960 nM.
The same measure, in the same setting: as for `Cc1ccccc1NC(=O)/C=C/c1ccc(O)c(O)c1`, the figure is 4710 nM; as for `Cc1cccc(NC(=O)/C=C/c2ccc(O)c(O)c2)c1`, 4800 nM; as for `O=C(/C=C/c1ccc(O)c(O)c1)Nc1ccccc1F`, 4250 nM.
As to `COc1ccccc1NC(=O)/C=C/c1ccc(O)c(O)c1`, the half-inhibitory concentration (IC50) came out at 5250 nM.
`O=C(/C=C/c1ccccc1)NCCc1ccccc1`: the IC50 stood at 3250 nM.
On the same count and under the same terms, to `O=C(/C=C/c1ccccc1)Nc1ccc(O)cc1` belongs 5400 nM.
Still for that read-out and setting: as for `O=C(/C=C/c1cccc(O)c1)Nc1ccc(Cl)cc1`, the figure is 3500 nM; as for `O=C(/C=C/c1ccc(O)cc1)NCc1ccccc1`, 3140 nM.
Same read-out and setting: as for `COc1cccc(NC(=O)/C=C/c2ccc(O)cc2)c1`, the figure is 5220 nM; as for `COc1ccc(NC(=O)/C=C/c2ccc(O)cc2)cc1`, 5290 nM.
`Cc1cccc(NC(=O)/C=C/c2ccc(O)cc2)c1` yielded a 50% inhibitory concentration (IC50) of 4880 nM.
Molecule `O=C(/C=C/c1ccc(O)cc1)Nc1ccccc1F` yielded an IC50 of 4230 nM.
Same read-out and setting: as for `O=C(/C=C/c1ccc(O)cc1)Nc1cccc(F)c1`, the figure is 4430 nM; as for `O=C(/C=C/c1cccc(O)c1)NCc1ccccc1`, 3600 nM; as for `O=C(/C=C/c1cccc(O)c1)NCCc1ccccc1`, 3600 nM.
On to `O=C(/C=C/c1cccc(O)c1)Nc1ccccc1O`, for which the 50% inhibitory concentration (IC50) was 5210 nM.
In turn, `COc1cccc(NC(=O)/C=C/c2cccc(O)c2)c1` displayed a 50% inhibitory concentration (IC50) of 5160 nM.
`Cc1ccccc1NC(=O)/C=C/c1cccc(O)c1` yielded an IC50 of 4740 nM.
Same read-out and setting: as for `O=C(/C=C/c1cccc(O)c1)Nc1ccccc1F`, the figure is 4120 nM; as for `O=C(/C=C/c1cccc(O)c1)Nc1cccc(F)c1`, 4210 nM.
On the same count and under the same terms, as for `O=C(/C=C/c1cccc(O)c1)Nc1ccc(F)cc1`, the figure is 4390 nM; as for `O=C(/C=C/c1cccc(O)c1)Nc1ccccc1Cl`, 3260 nM.
Same read-out and setting: as for `O=C(/C=C/c1ccc(O)c(O)c1)Nc1ccccc1`, the figure is 3240 nM; as for `O=C(/C=C/c1ccc(O)cc1)NCCc1ccccc1`, 3220 nM.
In turn, `O=C(/C=C/c1ccc(O)c(O)c1)Nc1ccccc1O` displayed an IC50 of 5620 nM.
Still for that read-out and setting: to `O=C(/C=C/c1ccc(O)c(O)c1)NCc1ccccc1` belongs 3250 nM.
Still for that read-out and setting: as for `O=C(/C=C/c1ccc(O)c(O)c1)Nc1cccc(O)c1`, the figure is 5770 nM.
Take `O=C(/C=C/c1ccc(O)c(O)c1)Nc1ccc(O)cc1`: the IC50 stood at 5830 nM.
The same measure, in the same setting: as for `O=C(/C=C/c1cccc(O)c1)Nc1ccccc1` [3-HYDROXY-CINNAMANILIDE], the figure is 3400 nM.
On the same count and under the same terms, as for `O=C(/C=C/c1ccc(O)c(O)c1)NCCc1ccccc1` [CAFFEIC ACID PHENETHYL AMIDE], the figure is 3300 nM; as for `O=C(O)/C=C/c1ccc(O)c(O)c1` [CAFFEIC ACID], 239 nM.
As for `Cc1cccc(NC(=O)/C=C/c2ccccc2)c1` [N-M-TOLYLCINNAMAMIDE], the IC50 came out at 4590 nM.
The same measure, in the same setting: as for `Cc1ccccc1NC(=O)/C=C/c1ccccc1` [N-O-TOLYLCINNAMAMIDE], the figure is 4520 nM.
On the same count and under the same terms, to `Cc1ccc(NC(=O)/C=C/c2ccccc2)cc1` [N-P-TOLYLCINNAMAMIDE] belongs 4670 nM.

The target in another experiment is 72 kDa type IV collagenase (Homo sapiens, UniProt P08253).
72 kDa type IV collagenase, sequence (P08253 whole entry): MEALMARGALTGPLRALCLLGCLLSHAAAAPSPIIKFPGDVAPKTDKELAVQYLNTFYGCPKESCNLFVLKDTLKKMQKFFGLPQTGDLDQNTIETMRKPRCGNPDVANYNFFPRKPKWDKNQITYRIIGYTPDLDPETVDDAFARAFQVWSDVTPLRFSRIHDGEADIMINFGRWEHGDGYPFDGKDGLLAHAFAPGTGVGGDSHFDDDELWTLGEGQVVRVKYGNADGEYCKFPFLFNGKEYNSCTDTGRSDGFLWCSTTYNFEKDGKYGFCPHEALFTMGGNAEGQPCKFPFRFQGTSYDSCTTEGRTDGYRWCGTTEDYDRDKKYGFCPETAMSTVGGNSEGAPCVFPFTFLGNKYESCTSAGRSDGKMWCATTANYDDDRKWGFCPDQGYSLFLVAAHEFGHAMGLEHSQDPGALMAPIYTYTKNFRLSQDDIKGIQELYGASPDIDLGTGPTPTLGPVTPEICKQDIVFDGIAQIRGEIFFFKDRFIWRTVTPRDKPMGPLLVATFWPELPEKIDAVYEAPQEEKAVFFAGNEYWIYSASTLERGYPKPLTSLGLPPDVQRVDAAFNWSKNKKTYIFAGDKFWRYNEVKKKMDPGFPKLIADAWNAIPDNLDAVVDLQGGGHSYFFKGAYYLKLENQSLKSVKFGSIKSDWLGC
Description: Inhibition of human recombinant MMP2 using succinylated gelatin as substrate incubated for 30 mins prior to substrate addition measured after 60 mins
For the molecule `O=C(/C=C/c1ccc(O)c(O)c1)Nc1ccc(F)cc1`, the IC50 came to 8.31 nM.
Molecule `COc1cccc(NC(=O)/C=C/c2ccc(O)c(O)c2)c1` returned an IC50 of 1680 nM.
On to `COc1ccc(NC(=O)/C=C/c2ccc(O)c(O)c2)cc1`, for which the IC50 came out at 3.42 nM.
The same measure, in the same setting: as for `O=C(/C=C/c1ccc(O)c(O)c1)Nc1ccccc1Cl`, the figure is 9.11 nM; as for `O=C(/C=C/c1ccc(O)c(O)c1)Nc1cccc(F)c1`, 1820 nM.
`O=C(/C=C/c1ccc(O)c(O)c1)Nc1cccc(Cl)c1` showed an IC50 of 1870 nM.
Consider `Cc1ccc(NC(=O)/C=C/c2ccc(O)c(O)c2)cc1`, for which it took 3.55 nM to reach half-maximal inhibition (IC50).
The same measure, in the same setting: to `O=C(/C=C/c1ccc(O)c(O)c1)Nc1ccc(Cl)cc1` belongs 8.95 nM; to `Cc1ccccc1NC(=O)/C=C/c1ccc(O)c(O)c1`, 5.97 nM; to `Cc1cccc(NC(=O)/C=C/c2ccc(O)c(O)c2)c1`, 1720 nM.
Turning to `O=C(/C=C/c1ccc(O)c(O)c1)Nc1ccccc1F`, the half-inhibitory concentration (IC50) stood at 8.92 nM.
`COc1ccccc1NC(=O)/C=C/c1ccc(O)c(O)c1`: the IC50 is 5.27 nM.
In turn, `O=C(/C=C/c1ccccc1)NCCc1ccccc1` came in with an IC50 of 9.13 nM.
`O=C(/C=C/c1ccccc1)Nc1ccc(O)cc1` showed a half-maximal inhibitory concentration (IC50) of 5.28 nM.
Consider `O=C(/C=C/c1cccc(O)c1)Nc1ccc(Cl)cc1`, for which it took 9.11 nM to reach half-maximal inhibition (IC50).
Same read-out and setting: to `O=C(/C=C/c1ccc(O)cc1)NCc1ccccc1` belongs 8.32 nM.
Same read-out and setting: to `COc1cccc(NC(=O)/C=C/c2ccc(O)cc2)c1` belongs 1760 nM; to `COc1ccc(NC(=O)/C=C/c2ccc(O)cc2)cc1`, 4.09 nM; to `Cc1cccc(NC(=O)/C=C/c2ccc(O)cc2)c1`, 1750 nM.
Molecule `O=C(/C=C/c1ccc(O)cc1)Nc1ccccc1F` returned an IC50 of 9.01 nM.
On the same count and under the same terms, as for `O=C(/C=C/c1ccc(O)cc1)Nc1cccc(F)c1`, the figure is 1580 nM; as for `O=C(/C=C/c1cccc(O)c1)NCc1ccccc1`, 8.44 nM; as for `O=C(/C=C/c1cccc(O)c1)NCCc1ccccc1`, 8.46 nM.
Still for that read-out and setting: as for `O=C(/C=C/c1cccc(O)c1)Nc1ccccc1O`, the figure is 5.57 nM; as for `COc1cccc(NC(=O)/C=C/c2cccc(O)c2)c1`, 1670 nM; as for `Cc1ccccc1NC(=O)/C=C/c1cccc(O)c1`, 5.73 nM.
The same measure, in the same setting: to `O=C(/C=C/c1cccc(O)c1)Nc1ccccc1F` belongs 9.09 nM; to `O=C(/C=C/c1cccc(O)c1)Nc1cccc(F)c1`, 1870 nM.
Turning to `O=C(/C=C/c1cccc(O)c1)Nc1ccc(F)cc1`, the IC50 came to 8.59 nM.
On the same count and under the same terms, as for `O=C(/C=C/c1cccc(O)c1)Nc1ccccc1Cl`, the figure is 9.41 nM; as for `O=C(/C=C/c1ccc(O)c(O)c1)Nc1ccccc1`, 8.05 nM; as for `O=C(/C=C/c1ccc(O)cc1)NCCc1ccccc1`, 8.37 nM.
For `O=C(/C=C/c1ccc(O)c(O)c1)Nc1ccccc1O`, the IC50 is 5.09 nM.
On to `O=C(/C=C/c1ccc(O)c(O)c1)NCc1ccccc1`, for which the 50% inhibitory concentration (IC50) was determined as 8.22 nM.
`O=C(/C=C/c1ccc(O)c(O)c1)Nc1cccc(O)c1` gave a half-inhibitory concentration (IC50) of 1590 nM.
Same read-out and setting: to `O=C(/C=C/c1ccc(O)c(O)c1)Nc1ccc(O)cc1` belongs 3.28 nM.
On the same count and under the same terms, to `O=C(/C=C/c1cccc(O)c1)Nc1ccccc1` [3-HYDROXY-CINNAMANILIDE] belongs 8.41 nM.
Still for that read-out and setting: as for `O=C(/C=C/c1ccc(O)c(O)c1)NCCc1ccccc1` [CAFFEIC ACID PHENETHYL AMIDE], the figure is 8.2 nM; as for `O=C(O)/C=C/c1ccc(O)c(O)c1` [CAFFEIC ACID], 24.3 nM.
`Cc1cccc(NC(=O)/C=C/c2ccccc2)c1` [N-M-TOLYLCINNAMAMIDE] yielded a half-maximal inhibitory concentration (IC50) of 1950 nM.
Still for that read-out and setting: as for `Cc1ccccc1NC(=O)/C=C/c1ccccc1` [N-O-TOLYLCINNAMAMIDE], the figure is 6.41 nM.
In the case of `Cc1ccc(NC(=O)/C=C/c2ccccc2)cc1` [N-P-TOLYLCINNAMAMIDE], the 50% inhibitory concentration (IC50) was determined as 5.46 nM.

Source of the values: ChEMBL document CHEMBL2331288 (Bioorg Med Chem Lett, 2013).
